Here are results for one compound from US6916484B1, “Aqueous pharmaceutical composition containing moxifloxacin or salts thereof” (Bayer Aktiengesellschaft, priority 1999, dated 2005).

Structures can show the parent of a compound that is named as a salt.

The series can be described thus: Saturation solubility of moxifloxacin hydrochloride in water. It is filed as physicochemical. As to conditions: aqueous solution, room temperature. On the procedure:
Accordingly, freshly prepared solutions of moxifloxacin with sugars and/or sugar alcohols have, even if they have relatively high iron contents, a sufficient stability against the formation of particles for the period of use of, preferably, up to 12 hours after preparation. Thus, the problem to be solved by the invention can also be overcome by iron-containing solutions for infusion which are used immediately after preparation. Here, it is expedient to use a process in which a pre-formed concentrated aqueous solution of moxifloxacin or a salt thereof and a pre-formed solution of the sugar and/or the sugar alcohols are mixed with one another. […] The concentrated aqueous solution of moxifloxacin id hydrochloride preferably contains from 0.4% (w/v) to 2.4% (w/v) of moxifloxacin (calculated as betaine). […] The active compound concentrate preferably comprises from 1.0 to 2.0% (w/v) of moxifloxacin (calculated as betaine), particularly preferably 2.0% (w/v) of moxifloxacin (calculated as betaine). […]

For the compound `COc1c(N2C[C@@H]3CCCN[C@@H]3C2)c(F)cc2c(=O)c(C(=O)O)cn(C3CC3)c12` [moxifloxacin hydrochloride, 1-cyclopropyl-7-([S,S]-2,8-diazabicyclo[4.3.0]non-8-yl)-6-fluoro-1,4-dihydro-8-methoxy-4-oxo-3-quinolonecarboxylic acid], the saturation solubility entry is on record as “about 2.4 % (w/v)”.
